Results: ChEMBL document CHEMBL5113466, “Design, synthesis, and bioactivity evaluation of macrocyclic benzo[b]pyrido[4,3-e][1,4]oxazine derivatives as novel Pim-1 kinase inhibitors” (Bioorg Med Chem Lett, 2022)

Assays:
MDA-MB-231 = test: Antiproliferative activity against human […] cells measured by cell viability assay; format: functional, cell-based
[1] = molecular target: Serine/threonine-protein kinase pim-1 (Homo sapiens, UniProt P11309); test: Inhibition of Pim-1 (unknown origin) measured by ADP-Glo kinase assay
Serine/threonine-protein kinase pim-1, sequence (P11309 whole entry): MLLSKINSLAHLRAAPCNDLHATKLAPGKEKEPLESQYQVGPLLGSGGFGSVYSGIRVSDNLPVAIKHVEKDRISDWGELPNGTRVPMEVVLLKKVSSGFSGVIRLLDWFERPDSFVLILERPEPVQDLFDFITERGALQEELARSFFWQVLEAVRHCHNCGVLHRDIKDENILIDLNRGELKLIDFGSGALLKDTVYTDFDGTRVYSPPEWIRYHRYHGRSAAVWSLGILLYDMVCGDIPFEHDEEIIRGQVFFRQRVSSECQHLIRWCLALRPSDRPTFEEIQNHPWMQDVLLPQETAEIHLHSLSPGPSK

| IC50 (MDA-MB-231) | IC50 [1] | Structure (SMILES) |
| --- | --- | --- |
| 44 µM | 0.467 µM | c1cc2c(cn1)Oc1ccc3cc1N2CCOCCNCCCCO3 |
| 25.9 µM | 0.14 µM | c1cc2c(cn1)Oc1ccc3cc1N2CCCCCNCCOCCO3 |
| 35.4 µM | 2.19 µM | c1cc2c(cn1)Oc1ccc3cc1N2CCOCCNCCCCCO3 |
| 19 µM | 0.434 µM | c1cc2c(cn1)Oc1ccc3cc1N2CCCCNCCCCO3 |
| 12.3 µM | 0.176 µM | c1cc2c(cn1)Oc1ccc3cc1N2CCCCNCCOCCO3 |
| 19.5 µM | 0.0573 µM | c1cc2c(cn1)Oc1ccc3cc1N2CCCNCCOCCO3 |
| 30 µM | 0.881 µM | c1cc2c(cn1)Oc1ccc3cc1N2CCOCCNCCCO3 |
| 8.15 µM | 0.0351 µM | c1cc2c(cn1)Oc1ccc3cc1N2CCCCCNCCCCO3 |
| 16.3 µM | 0.27 µM | c1cc2c(cn1)Oc1ccc3cc1N2CCCCNCCCCCO3 |
